The values that follow come from patent US6685915B2, “Extended-linear polymeric contrast agents, and synthesizing methods, for medical imaging” (General Electric Company, priority 1999, dated 2004).

This data set is described as follows: blood circulation time. The format is in vivo.

Source text: Furthermore, the blood circulation times can be adjusted by varying the polymer length.

In the case of `O=C([O-])CN(CCN(CC(=O)[O-])CC(=O)O)CCN(CC(=O)[O-])CC(=O)O.[Gd+3]` [Gd-DTPA, gadolinuim- diethylentriaminepentaaceticacid], the circulation time constant was 15 min.
